Source: patent US5849735A, “Tricyclic benzazepine vasopressin antagonists” (American Cyanamid Company, priority 1995, dated 1998)

Molecular target: T1, vasopressin V1 receptor (human platelet membranes) (Homo sapiens, UniProt P37288)
T1 construct: tissue Hudson Valley Blood Services; host or cells: human platelets (frozen platelet rich plasma)
Assay: Binding to Vasopressin V1 receptor subtype in Human Platelet Membranes
Method: Radioligand Binding Experiments with Human Platelet Membranes
(a) Platelet Membrane Preparation
Frozen platelet rich plasma (PRP), received from the Hudson Valley Blood Services, are thawed to room temperature. (Platelet Source: Hudson Valley Blood Services, Westchester Medical Center, Valhalla, N.Y.). The tubes containing the PRP are centrifuged at 16,000×g for 10 minutes at 4° C. and the supernatant fluid discarded. The platelets resuspended in an equal volume of 50.0 mM Tris.HCL, pH 7.5 containing 120 mM NaCl and 20.0 mM EDTA. The suspension is recentrifuged at 16,000×g for 10 minutes. This washing step is repeated one more time. The wash discarded and the lysed pellets homogenized in low ionic strength buffer of Tris. HCl, […], pH 7.5 containing 5.0 mM EDTA. The homogenate is centrifuged at 39,000×g for 10 minutes. The resulting pellet is resuspended in Tris.HCl buffer, 70.0 mM, pH 7.5 and recentrifuged at 39,000×g for 10 minutes. […]
In wells of a 96 well format microtiter plate, add 100 ml of 50.0 mM Tris. […] Non specific binding is measured in the presence of 1.0 mM of unlabeled ligand (Manning or Arg^8 Vasopressin). […] The radioactivity caught on the filter disks is determined by the addition of liquid scintillant and counting in a liquid scintillator.

T1 sequence (P37288 whole entry): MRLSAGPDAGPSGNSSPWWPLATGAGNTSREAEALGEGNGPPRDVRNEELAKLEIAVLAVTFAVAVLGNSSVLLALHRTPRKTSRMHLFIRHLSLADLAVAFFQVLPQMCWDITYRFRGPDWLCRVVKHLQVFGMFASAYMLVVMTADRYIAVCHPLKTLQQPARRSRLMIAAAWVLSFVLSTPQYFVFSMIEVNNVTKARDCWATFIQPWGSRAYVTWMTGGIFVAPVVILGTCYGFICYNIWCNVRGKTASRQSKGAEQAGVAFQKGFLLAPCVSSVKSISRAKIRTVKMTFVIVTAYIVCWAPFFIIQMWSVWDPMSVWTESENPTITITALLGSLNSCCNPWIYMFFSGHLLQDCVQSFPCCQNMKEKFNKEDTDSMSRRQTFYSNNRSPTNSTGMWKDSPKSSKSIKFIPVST

Row | SMILES | V1 % ("(μM)" (concentration not given), 90 min) | IC50
1 | CCCCOc1ccc(C(=O)N2Cc3ccccc3Cc3ccccc32)cc1 [Example 24] | 72% | 
2 | O=C(c1ccc(-c2ccccc2)cc1)N1Cc2sccc2Cc2ccccc21 [Example 27, 9-([1,1'-Biphenyl]-4-ylcarbonyl)-9,10-dihydro-4H-thieno[2,3-c][1]benzazepine] |  | 14 nM
